Columns and labels:
PC-3 = assay: Cytotoxicity screening, PC-3 cells; format: cell-based; details: Homo sapiens; for inhibition at 10 µM: treatment at 10 μM, 24 h treatment then 96 h incubation, read-out: Inhibition: percent cell death normalized against controls; for IC50: read-out: IC50, drug dose to inhibit 50% cell proliferation
Procedure: (§1) Tumor cells were maintained as monolayers in 75-cm^2 tissue culture flasks using their respective cell culture medium containing 10% fetal bovine serum and 2 mM L-glutamine. The cells were incubated at 37° C. under a humidified 5% CO2: air atmosphere (standard conditions) for five days. The cells were harvested when in mid-log growth and their concentration was determined using a particle counter (Beckman Coulter, Inc, Fullerton, Calif.). An aliquot of the cell suspension was diluted in culture medium for delivery to a 24-well tissue culture plate at a range of 10,000 to 30,000 per 1 mL per well. After 24 h, quadruplicate wells were inoculated with either vehicle (untreated controls) or test compounds at various concentrations. After 24 h of incubation, the wells were aspirated, washed once with 1 mL PBS, and refilled with 1 mL treatment-free medium. Following a 96-h incubation under the initial treatment conditions, the viable cells were counted and the numbers were normalized to the percent of untreated controls. The extent of cytotoxicity in treated wells as compared to the controls and the dose that inhibits 50% cell proliferation (IC50) was calculated.

Panc-1 = assay: Cytotoxicity screening, Panc-1 cells; format: cell-based; details: Homo sapiens; for inhibition at 10 µM: Panc-1, treatment at 10 μM, 24 h treatment then 96 h incubation, read-out: Inhibition: percent cell death normalized against controls
Procedure: as §1

MIA PaCa-2 = assay: Cytotoxicity screening, MIA PaCa-2 cells; format: cell-based; details: Homo sapiens; for inhibition at 10 µM: treatment at 10 μM, 24 h treatment then 96 h incubation; for IC50: read-out: IC50, drug dose to inhibit 50% cell proliferation
Procedure: as §1

LS174-T = assay: Cytotoxicity screening, LS174-T cells; format: cell-based; details: Homo sapiens, LS174T; for inhibition at 10 µM: treatment at 10 μM, 24 h treatment then 96 h incubation; for IC50: read-out: IC50, drug dose to inhibit 50% cell proliferation
Procedure: as §1

[1] = system: LS174-T human colon carcinoma tumors; assay: Evaluation of antitumor activity, nude mouse model of LS174-T tumors; format: in vivo; details: female nude mice, sc LS174-T tumors, iv qdx5; untreated control 15 days; n=8, p=0.043
Procedure: Antitumor activity of compound II-e was evaluated using a nude mouse model of Ls174-T human colon cancer tumors. Female nude mice were implanted subcutaneously (sc) with LS174-T human colon carcinoma cells (10^7 cells/mouse). When tumors reached a cross diameter of 7 mm, the mice were randomized into 2×8 groups and were injected iv with either the vehicle (5% dextrose solution containing 20% 50:50, Cremophore EL: ethanol)) or a solution II-e in the same solvent system. The protocol used was qdx5 injections every 24 h. Tumor volumes were monitored by caliper measurement 3× weekly (see FIG. 1 wherein circles correspond to inactivated compound IIe; triangles correspond to vehicle; and squares correspond to compound II-e).

[2] = read-out: Inhibition: percent cell death normalized against controls
[3] = measured at 7.5 μM, read-out: Inhibition: percent cell death normalized against controls

Row | Structure (SMILES) | inhibition at 10 µM (PC-3) | inhibition at 10 µM (Panc-1) | inhibition at 10 µM (MIA PaCa-2; [2]) | inhibition at 10 µM (LS174-T; [2]) | Tumor doubling time [1] | IC50 (Panc-1; PANC-1, read-out: IC50, drug dose to inhibit 50% cell proliferation) | inhibition at 7.5 µM (MIA PaCa-2; [3]) | IC50 (MIA PaCa-2) | IC50 (PC-3) | inhibition at 7.5 µM (LS174-T; [3]) | IC50 (LS174-T)
1 | OC(CSCC(O)c1ccccc1)c1ccccc1 (stereo not shown) [II-a] | 5 ± 9% |  |  |  |  |  |  |  |  |  | 
2 | COc1cccc(C(O)CSCC(O)c2cccc(OC)c2OC)c1OC (stereo not shown) [II-b] | 8 ± 4% | 0% | 0% | 0% |  |  |  |  |  |  | 
3 | OC(CSCC(O)c1ccc(OC(F)(F)F)cc1)c1ccc(OC(F)(F)F)cc1 (stereo not shown) [II-c] | 40 ± 7% | 43 ± 9% | 34 ± 14% | 13 ± 7% |  |  |  |  |  |  | 
4 | OC(CSCC(O)c1ccc(C(F)(F)F)cc1)c1ccc(C(F)(F)F)cc1 (stereo not shown) [II-d] | 43 ± 4% | 27 ± 5% | 11 ± 4% | 33 ± 6% |  |  |  |  |  |  | 
5 | CC(=O)C(CSCC(C(C)=O)c1cc(C(F)(F)F)cc(C(F)(F)F)c1)c1cc(C(F)(F)F)cc(C(F)(F)F)c1 (stereo not shown) [II-e bis-OAc, 4,4′-thiobis(3-(3,5-bis(trifluoromethyl)phenyl)butan-2-one)] |  |  | 29 ± 6% |  |  |  |  |  |  |  | 
6 | OC(CSCC(O)c1cc(C(F)(F)F)cc(C(F)(F)F)c1)c1cc(C(F)(F)F)cc(C(F)(F)F)c1 (stereo not shown) [II-e] | 78 ± 4% | 80 ± 4% | 94 ± 2% | 96% | 30 days | 6.3 µM | 94 ± 2% | 3.7 µM | 4.4 µM | 96 ± 1% | 3.6 µM
7 | COc1cc(/C=C/C(=O)CC(=O)/C=C/c2ccc(O)c(OC)c2)ccc1O [curcumin, reference compound] |  |  |  |  |  |  |  | 9 µM | 12 µM |  | 6.5 µM
